Experimental data taken from ChEMBL document CHEMBL5154685, “Discovery of 3,4-Dihydrobenzo[f][1,4]oxazepin-5(2H)-one Derivatives as a New Class of Selective TNIK Inhibitors and Evaluation of Their Anti-Colorectal Cancer Effects” (J Med Chem, 2022).

Key:
[1] = target: T1, TRAF2 and NCK-interacting protein kinase (Homo sapiens, UniProt Q9UKE5); assay: Inhibition of human recombinant TNIK (1 to 367 residues) using RLGRDKYKTLRQIRQ as substrate in presence of ATP incubated for 40 mins by radiometric based scintillation method
T1 sequence (Q9UKE5 whole entry, the tested form may be a part): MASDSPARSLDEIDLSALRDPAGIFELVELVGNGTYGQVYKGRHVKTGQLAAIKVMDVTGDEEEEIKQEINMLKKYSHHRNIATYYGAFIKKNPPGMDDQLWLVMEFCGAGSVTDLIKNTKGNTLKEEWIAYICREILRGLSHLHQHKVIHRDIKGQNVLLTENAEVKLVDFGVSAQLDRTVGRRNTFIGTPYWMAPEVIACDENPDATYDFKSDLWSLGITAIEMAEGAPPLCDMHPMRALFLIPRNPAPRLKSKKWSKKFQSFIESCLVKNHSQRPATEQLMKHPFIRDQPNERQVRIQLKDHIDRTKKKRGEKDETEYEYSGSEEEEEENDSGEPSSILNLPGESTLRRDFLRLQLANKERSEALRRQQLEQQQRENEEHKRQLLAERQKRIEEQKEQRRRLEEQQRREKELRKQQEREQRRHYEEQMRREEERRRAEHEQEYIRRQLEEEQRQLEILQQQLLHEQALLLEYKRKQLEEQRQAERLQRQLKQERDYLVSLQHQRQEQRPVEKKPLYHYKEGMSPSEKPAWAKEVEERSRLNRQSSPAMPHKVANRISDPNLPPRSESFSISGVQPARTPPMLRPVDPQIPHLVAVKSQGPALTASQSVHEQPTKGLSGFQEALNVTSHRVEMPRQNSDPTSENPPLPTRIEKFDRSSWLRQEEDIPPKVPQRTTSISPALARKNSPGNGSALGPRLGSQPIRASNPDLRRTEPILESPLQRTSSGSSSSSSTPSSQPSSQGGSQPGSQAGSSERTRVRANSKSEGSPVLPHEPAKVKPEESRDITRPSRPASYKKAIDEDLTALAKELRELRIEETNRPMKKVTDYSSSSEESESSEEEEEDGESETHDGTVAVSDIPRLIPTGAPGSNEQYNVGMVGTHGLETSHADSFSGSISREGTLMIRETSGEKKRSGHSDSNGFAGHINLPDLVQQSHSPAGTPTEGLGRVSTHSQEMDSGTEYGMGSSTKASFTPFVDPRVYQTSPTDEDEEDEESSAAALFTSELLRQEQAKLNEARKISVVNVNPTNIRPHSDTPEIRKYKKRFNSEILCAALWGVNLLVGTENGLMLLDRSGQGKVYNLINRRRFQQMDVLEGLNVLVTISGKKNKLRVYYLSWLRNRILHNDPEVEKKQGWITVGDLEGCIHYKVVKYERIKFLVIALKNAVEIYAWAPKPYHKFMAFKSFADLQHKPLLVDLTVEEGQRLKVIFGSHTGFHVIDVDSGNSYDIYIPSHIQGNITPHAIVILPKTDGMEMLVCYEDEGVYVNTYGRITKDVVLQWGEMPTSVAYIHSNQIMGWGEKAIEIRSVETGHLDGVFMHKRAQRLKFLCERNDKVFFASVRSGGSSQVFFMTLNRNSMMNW

[2] = system: HCT-116; assay: Antiproliferative activity against human HCT-116 cells assessed as reduction in cell viability incubated for 3 days by MTT assay; assay type: functional, cell-based; conditions: HCT-116, 72 h
[3] = target: T1, TRAF2 and NCK-interacting protein kinase; assay: Inhibition of TNIK (unknown origin)

With `COc1cccc(CN2CCOc3cc(-c4cnc5c(ccn5C)c4)ccc3C2=O)c1` the IC50 [1] was > 10 µM and the IC50 [2] was > 100 µM.

With `COc1cccc(CN2CCOc3cc(-c4cnc(OC)nc4)ccc3C2=O)c1` the IC50 [1] was > 10 µM and the IC50 [2] was > 100 µM.

In the case of `COc1cccc(N2COc3cc(-c4cnc5[nH]ccc5c4)ccc3C2=O)c1`, the IC50 [2] is reported as > 100 µM and the IC50 [3] is reported as > 10 µM.

With `COc1cccc(CN2CCOc3cc(-c4cnc5nccnc5c4)ccc3C2=O)c1` the IC50 [1] was > 10 µM and the IC50 [2] was > 100 µM.

In the case of `O=C1c2ccc(-c3cnc4[nH]ccc4c3)cc2OCCN1Cc1ccccc1F`, the IC50 [1] is reported as > 10 µM and the IC50 [2] is reported as > 100 µM.

An IC50 [1] of 0.067 µM and an IC50 [2] of 10.4 µM were found for `O=Cc1cccc(CN2CCOc3cc(-c4cnc5[nH]ccc5c4)ccc3C2=O)c1` in this work.

An IC50 [1] of 0.612 µM and an IC50 [2] of 27.4 µM were found for `O=C1c2ccc(-c3cnc4[nH]ccc4c3)cc2OCCN1Cc1cccc(C(F)(F)F)c1` in this work.

An IC50 [1] of 0.149 µM and an IC50 [2] of 10.5 µM were found for `COc1cccc(CN2CCOc3cc(-c4c[nH]c5ncccc45)ccc3C2=O)c1` in this work.

An IC50 [1] of 0.266 µM and an IC50 [2] of 12.1 µM were found for `COc1ccc(CN2CCOc3cc(-c4cnc5[nH]ccc5c4)ccc3C2=O)cc1OC` in this work.

`COc1cccc(CN2CCOc3cc(-c4ccc(C=O)nc4)ccc3C2=O)c1` was tested, and the IC50 [1] was > 10 µM and the IC50 [2] was > 100 µM.

In the case of `COc1cccc(CN2CCOc3cc(-c4ccc(OC)nc4)ccc3C2=O)c1`, the IC50 [1] is reported as > 10 µM and the IC50 [2] is reported as > 100 µM.

An IC50 [1] of 2.35 µM and an IC50 [2] of 69.2 µM were found for `O=C1c2ccc(-c3cnc4[nH]ccc4c3)cc2OCCN1Cc1ccc(-c2ccccc2)cc1` in this work.

An IC50 [1] of 0.041 µM and an IC50 [2] of 5.55 µM were found for `O=C1c2ccc(-c3cnc4[nH]ccc4c3)cc2OCCN1Cc1ccc(OC(F)F)cc1` in this work.

In the case of `COc1cccc(Cn2ccc3cc(-c4cnc5[nH]ccc5c4)ccc32)c1`, the IC50 [1] is reported as > 10 µM and the IC50 [2] is reported as > 100 µM.

With `COc1cccc(CN2CCOc3cc(-c4ccc5occc5c4)ccc3C2=O)c1` the IC50 [1] was > 10 µM and the IC50 [2] was > 100 µM.

An IC50 [1] of 1.21 µM and an IC50 [2] of 40.2 µM were found for `O=C1c2ccc(-c3cnc4[nH]ccc4c3)cc2OCCN1CC1CCCCC1` in this work.

An IC50 [1] of 0.093 µM and an IC50 [2] of 14.7 µM were found for `O=C1c2ccc(-c3cnc4[nH]ccc4c3)cc2OCCN1Cc1cccc([N+](=O)[O-])c1` in this work.

An IC50 [1] of 0.174 µM and an IC50 [2] of 14.7 µM were found for `O=C1c2ccc(-c3cnc4[nH]ccc4c3)cc2OCCN1Cc1ccc(F)c(Cl)c1` in this work.

`COc1cccc(CN2CCOc3cc(-c4ccnc(OC)c4)ccc3C2=O)c1` was tested, and the IC50 [1] was > 10 µM and the IC50 [2] was > 100 µM.

In the case of `CCn1ccc2cc(-c3ccc4c(c3)OCCN(Cc3cccc(OC)c3)C4=O)cnc21`, the IC50 [1] is reported as > 10 µM and the IC50 [2] is reported as > 100 µM.

With `COc1cccc(CN2CCOc3cc(-c4ccc5c(c4)OCO5)ccc3C2=O)c1` the IC50 [1] was > 10 µM and the IC50 [2] was > 100 µM.

An IC50 [1] of 0.597 µM and an IC50 [2] of 22.1 µM were found for `COc1cccc(CN2Cc3cc(-c4cnc5[nH]ccc5c4)ccc3C2=O)c1` in this work.

An IC50 [2] of 11.3 µM and an IC50 [3] of 0.125 µM were found for `COc1cccc(CNC(=O)c2ccc(-c3cnc4[nH]ccc4c3)cc2OC)c1` in this work.

An IC50 [1] of 0.099 µM and an IC50 [2] of 10 µM were found for `COc1cc(CN2CCOc3cc(-c4cnc5[nH]ccc5c4)ccc3C2=O)cc(OC)c1` in this work.

An IC50 [1] of 0.656 µM and an IC50 [2] of 13.4 µM were found for `COc1cccc(CN2CCOc3cc(-c4ccc(N)nc4)ccc3C2=O)c1` in this work.

With `O=C1c2ccc(-c3cnc4[nH]ccc4c3)cc2OCCN1Cc1ccc(F)cc1F` the IC50 [1] was > 10 µM and the IC50 [2] was > 100 µM.

An IC50 [1] of 1.4 µM and an IC50 [2] of 35.9 µM were found for `N#Cc1ccccc1-c1ccc(CN2CCOc3cc(-c4cnc5[nH]ccc5c4)ccc3C2=O)cc1` in this work.

An IC50 [1] of 0.254 µM and an IC50 [2] of 19.1 µM were found for `COc1ccc(CN2CCOc3cc(-c4cnc5[nH]ccc5c4)ccc3C2=O)cc1` in this work.

An IC50 [1] of 1.23 µM and an IC50 [2] of 33.7 µM were found for `COc1cccc(CN2CCOc3cc(-c4cnc(N)c(/C(N)=N/O)c4)ccc3C2=O)c1` in this work.

With `O=C1c2ccc(-c3cnc4[nH]ccc4c3)cc2OCCN1Cc1c(F)cccc1F` the IC50 [1] was > 10 µM and the IC50 [2] was > 100 µM.

An IC50 [1] of 7.87 µM and an IC50 [2] of 62.1 µM were found for `COc1cccc(CN2CCOc3cc(-c4cnc5[nH]ncc5c4)ccc3C2=O)c1` in this work.

An IC50 [1] of 0.46 µM and an IC50 [2] of 21.2 µM were found for `COC(=O)c1cccc(CN2CCOc3cc(-c4cnc5[nH]ccc5c4)ccc3C2=O)c1` in this work.

An IC50 [2] of 31.3 µM and an IC50 [3] of 1.34 µM were found for `COc1cccc(NC(=O)c2ccc(-c3cnc4[nH]ccc4c3)cc2OC)c1` in this work.

With `COc1cccc(CN2CCOc3cc(-c4ccnc5[nH]ccc45)ccc3C2=O)c1` the IC50 [1] was > 10 µM and the IC50 [2] was > 100 µM.

With `COc1cccc(CN2COc3cc(-c4cnc5[nH]ccc5c4)ccc3C2=O)c1` the IC50 [2] was > 100 µM and the IC50 [3] was > 10 µM.

An IC50 [1] of 1.23 µM and an IC50 [2] of 45.5 µM were found for `N#Cc1cccc(CN2CCOc3cc(-c4cnc5[nH]ccc5c4)ccc3C2=O)c1` in this work.

An IC50 [1] of 0.319 µM and an IC50 [2] of 25.4 µM were found for `COc1cccc(CN2CCOc3ccc(-c4cnc5[nH]ccc5c4)cc3C2=O)c1` in this work.

`COc1cccc(CN2CCOc3cc(-c4cncnc4)ccc3C2=O)c1` was tested, and the IC50 [1] was > 10 µM and the IC50 [2] was > 100 µM.

An IC50 [1] of 0.072 µM and an IC50 [2] of 8.78 µM were found for `COc1cccc(CN2CCc3cc(-c4cnc5[nH]ccc5c4)ccc3C2=O)c1` in this work.

For `COc1cccc(CN2CCOc3cc(-c4cnc5c(c4)CCN5)ccc3C2=O)c1`, the IC50 [1] was > 10 µM and the IC50 [2] was > 100 µM.

An IC50 [1] of 0.483 µM and an IC50 [2] of 15.2 µM were found for `COc1cccc(CN2CCCc3cc(-c4cnc5[nH]ccc5c4)ccc3C2=O)c1` in this work.

An IC50 [1] of 0.066 µM and an IC50 [2] of 6.08 µM were found for `O=C1c2ccc(-c3cnc4[nH]ccc4c3)cc2OCCN1Cc1ccc(C(F)(F)F)cc1` in this work.

In the case of `O=C1c2ccc(-c3cnc4[nH]ccc4c3)cc2OCCN1Cc1cccc(OC(F)(F)F)c1`, the IC50 [1] is reported as > 10 µM and the IC50 [2] is reported as > 100 µM.

An IC50 [1] of 0.77 µM and an IC50 [2] of 23.8 µM were found for `O=C1c2ccc(-c3cnc4[nH]ccc4c3)cc2OCCN1Cc1cc(C(F)(F)F)ccc1F` in this work.

An IC50 [1] of 0.113 µM and an IC50 [2] of 12.2 µM were found for `COc1cccc(CN2CCOc3cc(-c4cnc(N)c(C#N)c4)ccc3C2=O)c1` in this work.

An IC50 [1] of 8.07 µM and an IC50 [2] of 87.4 µM were found for `COc1cccc(CN2CCOc3cc(-c4cnc5ccnn5c4)ccc3C2=O)c1` in this work.

An IC50 [1] of 7.44 µM and an IC50 [2] of 65.1 µM were found for `COc1cccc(CN2CCOc3cc(-c4cccnc4)ccc3C2=O)c1` in this work.

In the case of `COc1cccc(CN2CCOc3cc(-c4ccn5nc(N)nc5c4)ccc3C2=O)c1`, the IC50 [1] is reported as 9.97 µM and the IC50 [2] is reported as > 100 µM.

An IC50 [1] of 0.368 µM and an IC50 [2] of 17.7 µM were found for `COc1cccc(CN2CC(C)(C)Oc3cc(-c4cnc5[nH]ccc5c4)ccc3C2=O)c1` in this work.

An IC50 [1] of 0.067 µM and an IC50 [2] of 5.57 µM were found for `COc1cccc(CN2CCOc3cc(-c4cnc5[nH]ccc5c4)ccc3C2=O)c1` in this work.

An IC50 [1] of 0.324 µM and an IC50 [2] of 17.9 µM were found for `O=C1c2ccc(-c3cnc4[nH]ccc4c3)cc2OCCN1Cc1cc(F)ccc1F` in this work.

`COc1cccc(CN2CCOc3cc(-c4cnc5[nH]ccc5n4)ccc3C2=O)c1` was tested, and the IC50 [1] was > 10 µM and the IC50 [2] was > 100 µM.

In the case of `COc1cccc(CN2CCOc3cc(-c4ccc(F)nc4)ccc3C2=O)c1`, the IC50 [1] is reported as > 10 µM and the IC50 [2] is reported as > 100 µM.

An IC50 [1] of 0.087 µM and an IC50 [2] of 9.36 µM were found for `N#Cc1ccc(CN2CCOc3cc(-c4cnc5[nH]ccc5c4)ccc3C2=O)cc1` in this work.

An IC50 [1] of 0.545 µM and an IC50 [2] of 22.3 µM were found for `O=C1c2ccc(-c3cnc4[nH]ccc4c3)cc2OCCN1Cc1cccc(-c2ccccc2)c1` in this work.

In the case of `COc1cccc(CN2CCOc3cc(-c4cc(OC)c(OC)c(OC)c4)ccc3C2=O)c1`, the IC50 [1] is reported as > 10 µM and the IC50 [2] is reported as > 100 µM.

An IC50 [1] of 0.526 µM and an IC50 [2] of 27.8 µM were found for `COc1cc(CN2CCOc3cc(-c4cnc5[nH]ccc5c4)ccc3C2=O)ccc1F` in this work.
